This note sets out measurements from US20050043331A1, “Substituted 3-(2,5-disubstituted)pyridyl-4-aryl pyrroles for treating inflammatory diseases” (priority 2002, published 2005).

Each structure is given as a SMILES string.

In experiment [1] the test system is TNF-α. The experiment can be described thus: In-vitro whole cell assay for TNF-α inhibition (LPS-stimulated PBMC, ELISA). It is filed as cell-based. Conditions: TNF-α by ELISA. In a few lines: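 Read-out: ELISA for TNF-α in supernatants after overnight 37° C LPS challenge (stock 200 ng/mL, RPMI/1% FCS). Cells: Ficoll-isolated human PBMC at 1.67×10^6/mL, exposed to test compound for 1 h at 37° C beforehand. Run in duplicate.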
(ELISA stands for enzyme-linked immunosorbent assay.)

Experiment [2] concerns the target T1, P38 (Homo sapiens, UniProt Q16539). The experiment can be described thus: P38 cell, 1 μM LJ. It is filed as cell-based. Also noted: unit not given here.
Experiment [3] addresses T1, P38. The experiment can be described thus: p38 inhibition in-vitro enzyme assay. Conditions: recombinant 6×His-p38. It is filed as biochemical. How it is done: Purified recombinant 6×His-p38 and GST-ATF2 (both expressed in Baculovirus) were served as enzyme and substrate in our p38 inhibition assay. The enzyme reaction was performed in the anti-GST antibody pre-coated 96-well ELISA plate.
A 96-well ELISA plate was coated with 100 μl/well of anti-GST antibody (from Amersham) at a concentration of […] and incubated overnight at 4° C. The ELISA plate was blocked with 100 μl/well of 1% BSA at 25° C. for at least 2 hours, then the plate was washed with 300 μl PBST. The enzyme reaction was started by adding 10 μl of p38 recombinant protein (0.05 nM in final concentration), 10 μl of compound in desired concentration, 10 μl of substrates (670 μM ATP, 200 nM GST-ATF2 in final concentration) and 70 μl of reaction buffer (50 mM HEPES, pH 7.4, 100 mM NaCl, 10 mM MgCl2) and the mixture was incubated at 37° C. for 30 min. Washing the reaction plate with 3×300 μl/well of PBST stopped the enzyme reaction. Detection of the phosphorylated ATF2 substrate was done by the addition of 100 μl of anti-Pi-ATF2 antibody (from Cell Signaling) at a 1:200 dilution. The mixture was incubated at 25° C. for 30 min. A solution of 100 μl of HRP-conjugated goat anti-rabbit antibody (from Pierce) at a 1:250 dilution was added and the mixture and incubated at 25° C. for 30 min. The plate was washed with 6×300 μI PBST and 100 μl of OPD substrate (from Sigma) was then added. The mixture was incubated at 25° C. for 10 min. before adding 100 μl of 3 N H2SO4. The plate was read at 490 nm.
The % inhibition of each test compound was calculated by the following formula: % inhibition=[1−(sample−BKG)/(CTRL−BKG)]×100. The IC50 of each test compound was determined by a triplicate-8 point dose titration curve by Prism GraphPad program. […]

Experiment [4] relates to TNF-α. The experiment can be described thus: In vivo rodent assay for inhibition of LPS-induced TNF-α production. Also noted: species or system Mice (BALB/cJ females). The conditions noted are these: Mus musculus, po, 0.5 h, 10 mg/kg oral, 0.5 h, read-out: Mouse 10 mg/kg % inhib 0.5 h. In a few lines: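 Female BALB/cJ mice or male Lewis rats, fasted 30 min, received compound orally (mg/kg) at various times before intraperitoneal LPS at 1 mg/kg. Blood was collected by cardiac puncture 1 h after LPS, and serum TNF-α was quantified by species-specific ELISA.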

T1 sequence (Q16539 whole entry): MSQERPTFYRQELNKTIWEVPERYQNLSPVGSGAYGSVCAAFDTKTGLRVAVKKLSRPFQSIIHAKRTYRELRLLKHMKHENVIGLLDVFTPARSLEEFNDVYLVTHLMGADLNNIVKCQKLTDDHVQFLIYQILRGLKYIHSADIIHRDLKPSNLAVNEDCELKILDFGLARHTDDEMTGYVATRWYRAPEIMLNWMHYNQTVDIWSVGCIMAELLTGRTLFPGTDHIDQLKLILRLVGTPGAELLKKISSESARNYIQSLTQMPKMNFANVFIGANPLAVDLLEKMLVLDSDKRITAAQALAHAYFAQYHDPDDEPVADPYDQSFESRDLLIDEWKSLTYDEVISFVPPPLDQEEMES

`OCc1c(-c2ccc(F)cc2)c(-c2ccncc2)cn1CCN1CCOCC1` [Cpd 59]: the IC50 (usually the concentration that gives 50% inhibition) turned out to be 277 nM with TNF-α [1] and 16 nM on P38 [3]. Besides, on P38 [2], the “P38 cell 1 μM LJ” value is reported as 4. Further, the inhibition in vivo at 10 mg/kg in the experiment on TNF-α [4] is -50%.

Consider `CCOC(=O)c1c(-c2ccc(F)cc2)c(-c2ccncc2)c(N2CCNCC2)n1C` [Cpd 96], for which the half-maximal inhibitory concentration (IC50) with TNF-α [1] was 16 nM; at P38 [3], > 10000 nM. In addition, the “P38 cell 1 μM LJ” value on P38 [2] turned out to be 22. The inhibition in vivo at 10 mg/kg in the experiment with TNF-α [4] was found to be 79%.

Take `COC(=O)c1c(-c2cccc(F)c2)c(-c2ccncc2)c(N2CCNCC2)n1C` [Cpd 105]: the figures for the IC50 in the experiment with TNF-α [1] and on P38 [3] were 69 nM and > 10000 nM, respectively. Further, on P38 [2], the “P38 cell 1 μM LJ” value is on record as 31. Besides, in the experiment on TNF-α [4], the inhibition in vivo at 10 mg/kg was determined as 49%.

On to `CCC(=O)c1c(-c2ccc(F)cc2)c(-c2ccncc2)c(N2CCNCC2)n1C` [Cpd 106], for which the IC50 with TNF-α [1] was 67 nM; at P38 [3], > 10000 nM. In addition, on P38 [2], the “P38 cell 1 μM LJ” value was 21. Moreover, the inhibition in vivo at 10 mg/kg in the experiment with TNF-α [4] was found to be 32%.

In the case of `CCCc1c(-c2ccnc(N[C@@H](C)COC)n2)c(-c2ccc(F)cc2)cn1CCN1CCOCC1` [Cpd 65], the half-inhibitory concentration (IC50) in the experiment on TNF-α [1] worked out at 1 nM; on P38 [3] it was 21 nM. The “P38 cell 1 μM LJ” value at P38 [2] is recorded as 102. In addition, the inhibition in vivo at 10 mg/kg in the experiment with TNF-α [4] was -1%.

For the molecule `CCOC(=O)c1c(-c2cccc(C(F)(F)F)c2)c(-c2ccncc2)c(N2CCNCC2)n1C` [Cpd 104], the IC50 in the experiment with TNF-α [1] was 21 nM; at P38 [3], > 10000 nM. Besides, at P38 [2], the “P38 cell 1 μM LJ” value is 11. Further, the inhibition in vivo at 10 mg/kg in the experiment on TNF-α [4] came to 83%.

For the molecule `CCCc1[nH]cc(-c2ccc(F)cc2)c1-c1ccnc(N[C@@H](C)COC)n1` [Cpd 61], the half-maximal inhibitory concentration (IC50) came out at 86 nM with TNF-α [1] and 5 nM at P38 [3]. For the same molecule, the “P38 cell 1 μM LJ” value on P38 [2] amounted to 91. Besides, in the experiment on TNF-α [4], the inhibition in vivo at 10 mg/kg is -35%.

Regarding `COC(=O)c1c(-c2ccc(F)cc2)c(-c2ccncc2)c(N2CCc3ccccc3C2)n1C` [Cpd 93], the 50% inhibitory concentration (IC50) in the experiment on TNF-α [1] is 66 nM; on P38 [3], > 10000 nM. Moreover, at P38 [2], the “P38 cell 1 μM LJ” value was 20. Besides, in the experiment on TNF-α [4], the inhibition in vivo at 10 mg/kg amounted to 32%.

Regarding `CCOC(=O)c1c(-c2ccc(F)c(F)c2)c(-c2ccncc2)c(Br)n1C` [Cpd 70], the IC50 is 2720 nM in the experiment with TNF-α [1] and > 10000 nM at P38 [3]. In addition, the “P38 cell 1 μM LJ” value at P38 [2] came to 12. In the experiment with TNF-α [4], the inhibition in vivo at 10 mg/kg is -36%.

As to `CCOC(=O)c1c(-c2ccc(C)cc2)c(-c2ccncc2)c(N2CCNCC2)n1C` [Cpd 83], the half-inhibitory concentration (IC50) in the experiment with TNF-α [1] stood at 60 nM; at P38 [3], 3940 nM. Further, the “P38 cell 1 μM LJ” value on P38 [2] was 53. In addition, the inhibition in vivo at 10 mg/kg in the experiment on TNF-α [4] was found to be 79%.

As to `CCOC(=O)c1[nH]cc(-c2ccncc2)c1-c1ccc(F)c(F)c1` [Cpd 69], the half-maximal inhibitory concentration (IC50) in the experiment with TNF-α [1] was 560 nM; on P38 [3], > 10000 nM. For the same molecule, the “P38 cell 1 μM LJ” value on P38 [2] was 17. The inhibition in vivo at 10 mg/kg in the experiment with TNF-α [4] is -32%.

For the molecule `COC(=O)c1c(-c2ccc(F)cc2)c(-c2ccncc2)c(NCc2ccncc2)n1C` [Cpd 103], the IC50 with TNF-α [1] is 145 nM; on P38 [3], > 10000 nM. At P38 [2], the “P38 cell 1 μM LJ” value is reported as 20. Further, the inhibition in vivo at 10 mg/kg in the experiment with TNF-α [4] was -22%.
